In ChEMBL document CHEMBL1255534, “Indoloditerpenes from an algicolous isolate of Aspergillus oryzae” (Bioorg Med Chem Lett, 2010):
Activity calls are given as the source filed them. No cut-off for these calls is given here.

Key:
Colletotrichum lagenaria = assay: Antifungal activity against Colletotrichum lagenarium at 30 ug/ml by agar diffusion test; type: functional, organism-based
[1] = Toxicity in Artemia salina assessed as lethal rate at 100 ug/mL; type: organism-based; conditions: in vivo, read-out: Activity
Fusarium oxysporum = assay: Antifungal activity against Fusarium oxysporum at 30 ug/ml by agar diffusion test; type: functional, organism-based
Escherichia coli = assay: Antibacterial activity against Escherichia coli at 30 ug/ml by agar diffusion test; type: functional

| SMILES | Activity (Colletotrichum lagenaria) | mortality at 100 ug/mL [1] [%] | Activity (Fusarium oxysporum) | diameter of the inhibition zone (DIZ) (Escherichia coli) | zone of inhibition at 30 µg/mL (Escherichia coli; read-out: DIZ) [mm] |
| --- | --- | --- | --- | --- | --- |
| CC(C)=C[C@H]1C[C@]2(C)[C@H](CC[C@@]3(C)[C@H]2CC[C@H]2Cc4c([nH]c5ccccc45)[C@@]23C)O1 | inactive | 74.2 | inactive | inactive |  |
| C/C=C1\[C@H]2C=C(C)C[C@]1(N)c1ccc(=O)[nH]c1C2 |  |  | inactive | inactive |  |
| CC(C)=C[C@H]1C[C@]2(C)[C@H](CC[C@@]3(C)[C@H]2CC[C@H]2CC(=O)c4ccccc4NC(=O)[C@@]23C)O1 [ASPORYZIN A] | inactive | 61.9 | inactive | inactive |  |
| CC(C)=C[C@H]1C[C@@]2(C)[C@@H]3CC[C@H]4CC5(O)c6ccccc6N5C(=O)[C@@H]4[C@@]3(C)CC[C@@H]2O1 (stereo partly specified) [ASPORYZIN B] | inactive | 42.9 | inactive | inactive |  |
| CC(C)(O)/C=C/C[C@]1(C)[C@@H](O)CC[C@@]2(C)[C@H]1CC[C@H]1Cc3c([nH]c4ccccc34)[C@@]12C [ASPORYZIN C] | inactive | 32.8 | inactive |  | 8.3 |
| C=C1[C@H](Cc2c[nH]c3ccccc23)CC[C@H]2[C@](C)(CCC=C(C)C)[C@@H](O)CC[C@]12C [EMENIVEOL] | inactive | 31.4 | inactive | inactive |  |
| CC(C)=CCC[C@]1(C)[C@@H](O)CC[C@@]2(C)[C@H]1CC[C@H]1Cc3c([nH]c4ccccc34)[C@@]12C [EMINDOLE SB] | inactive | 60.3 | inactive | inactive |  |
